Earlier results as cited in patent US20140100178A1, “COMPOSITION AND METHODS FOR SITE-SPECIFIC DRUG DELIVERY TO TREAT MALARIA AND OTHER LIVER DISEASES” (priority 2012, published 2014).

Key:
[1] = prophylactic doses (0.5 mg base/kg/day); children and men with normal G6PD activity; toxicity associated with >10%
[2] = in vivo

SMILES: COc1cc(NC(C)CCCN)c2ncccc2c1 (centres unmarked) [primaquine, Primaquine]
- mean methemoglobin rates [1]: 5.8%
- half life [2]: ~4 h
